Data as given in patent publication US9611256B2, “Alkyne-, azide- and triazole-containing flavonoids as modulators for multidrug resistance in cancers” (The Hong Kong Polytechnic University, priority 2012, dated 2017).

Experiments:
in vitro = settings: mouse
BCRP [1] = target: T1, BCRP (Homo sapiens, UniProt Q9UNQ0); experiment: Reversal of BCRP-mediated topotecan resistance in MCF7-MX100 cells (cell proliferation assay); settings: for % of reversion of sensitivity of MCF7-MX100 towards topotecan: triazole dimers at 1.0 μM; for Topotecan resistance of MCF7-MX100 Therapeutic index: (IC50 towards L929 or Raw264.7)/(EC50 for reversing drug resistance)
T1 sequence (Q9UNQ0 1-655): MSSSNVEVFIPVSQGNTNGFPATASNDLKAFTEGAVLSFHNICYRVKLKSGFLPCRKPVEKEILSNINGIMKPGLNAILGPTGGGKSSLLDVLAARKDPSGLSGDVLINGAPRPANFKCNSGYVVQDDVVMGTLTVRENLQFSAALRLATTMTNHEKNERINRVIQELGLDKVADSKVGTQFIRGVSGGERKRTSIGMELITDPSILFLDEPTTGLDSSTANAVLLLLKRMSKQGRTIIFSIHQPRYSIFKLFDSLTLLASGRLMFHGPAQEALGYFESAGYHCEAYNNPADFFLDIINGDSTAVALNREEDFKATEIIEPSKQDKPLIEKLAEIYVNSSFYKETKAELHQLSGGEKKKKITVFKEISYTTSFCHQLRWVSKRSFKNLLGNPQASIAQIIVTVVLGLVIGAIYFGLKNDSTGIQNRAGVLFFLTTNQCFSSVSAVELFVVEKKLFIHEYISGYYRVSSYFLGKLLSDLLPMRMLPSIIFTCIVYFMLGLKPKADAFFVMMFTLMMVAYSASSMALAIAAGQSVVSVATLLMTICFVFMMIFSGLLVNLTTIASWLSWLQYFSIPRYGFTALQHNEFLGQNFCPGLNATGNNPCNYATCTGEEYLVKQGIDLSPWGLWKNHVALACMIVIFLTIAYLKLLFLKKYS

BCRP [2] = target: T1, BCRP; experiment: cell-based
[3] = test system: P-gp, MRP1 and BCRP transporters; experiment: Selectivity for ABC transporters, determined from % of reversion (Tables 1 and 2); type: cell-based, human; settings: determined from % of reversion in Table 1 (>80% strongly, 79-50% moderately selective)
Excerpt: Generally, the triazole dimers library can be divided into mono-selective, dual-selective and multi-selective ABC transporter modulators. Table 2 summarizes the selectivity of different active triazole dimers and some monomeric azides for the ABC transporters. […] From the study, it seems that the simple monomeric azides could be a highly BCRP-selective inhibitor. […] It is possible that differently selective (mono-, dual- and multi-) inhibitors of drug transporters could be potentially useful tools for investigation of complicated drug-resistance phenotypes and eventually, for treatment of drug-resistant cancers caused by overexpression of ABC transporters.
The selectivity of active triazole compounds for various ABC transporters was determined from the Table 1. It would be considered as strongly selective if it causes >80% of reversion. It would be considered as moderately selective if it results in 79-50% of reversion. Overall, the active triazole compounds can be divided into mono-, dual- and multi-selective for P-gp, MRP1 and BCRP transporters.

MRP1 = MRP1 (Homo sapiens, UniProt P33527); experiment: Reversal of MRP1-mediated DOX resistance in 2008/MRP1 cells (cell proliferation assay); settings: for % of reversion of sensitivity of 2008/MRP1 towards DOX: triazole dimers at 1.0 μM; for DOX resistance of 2008/MRP1 Therapeutic index: (IC50 towards L929 or Raw264.7)/(EC50 for reversing drug resistance)
MRP1, sequence (P33527 whole entry): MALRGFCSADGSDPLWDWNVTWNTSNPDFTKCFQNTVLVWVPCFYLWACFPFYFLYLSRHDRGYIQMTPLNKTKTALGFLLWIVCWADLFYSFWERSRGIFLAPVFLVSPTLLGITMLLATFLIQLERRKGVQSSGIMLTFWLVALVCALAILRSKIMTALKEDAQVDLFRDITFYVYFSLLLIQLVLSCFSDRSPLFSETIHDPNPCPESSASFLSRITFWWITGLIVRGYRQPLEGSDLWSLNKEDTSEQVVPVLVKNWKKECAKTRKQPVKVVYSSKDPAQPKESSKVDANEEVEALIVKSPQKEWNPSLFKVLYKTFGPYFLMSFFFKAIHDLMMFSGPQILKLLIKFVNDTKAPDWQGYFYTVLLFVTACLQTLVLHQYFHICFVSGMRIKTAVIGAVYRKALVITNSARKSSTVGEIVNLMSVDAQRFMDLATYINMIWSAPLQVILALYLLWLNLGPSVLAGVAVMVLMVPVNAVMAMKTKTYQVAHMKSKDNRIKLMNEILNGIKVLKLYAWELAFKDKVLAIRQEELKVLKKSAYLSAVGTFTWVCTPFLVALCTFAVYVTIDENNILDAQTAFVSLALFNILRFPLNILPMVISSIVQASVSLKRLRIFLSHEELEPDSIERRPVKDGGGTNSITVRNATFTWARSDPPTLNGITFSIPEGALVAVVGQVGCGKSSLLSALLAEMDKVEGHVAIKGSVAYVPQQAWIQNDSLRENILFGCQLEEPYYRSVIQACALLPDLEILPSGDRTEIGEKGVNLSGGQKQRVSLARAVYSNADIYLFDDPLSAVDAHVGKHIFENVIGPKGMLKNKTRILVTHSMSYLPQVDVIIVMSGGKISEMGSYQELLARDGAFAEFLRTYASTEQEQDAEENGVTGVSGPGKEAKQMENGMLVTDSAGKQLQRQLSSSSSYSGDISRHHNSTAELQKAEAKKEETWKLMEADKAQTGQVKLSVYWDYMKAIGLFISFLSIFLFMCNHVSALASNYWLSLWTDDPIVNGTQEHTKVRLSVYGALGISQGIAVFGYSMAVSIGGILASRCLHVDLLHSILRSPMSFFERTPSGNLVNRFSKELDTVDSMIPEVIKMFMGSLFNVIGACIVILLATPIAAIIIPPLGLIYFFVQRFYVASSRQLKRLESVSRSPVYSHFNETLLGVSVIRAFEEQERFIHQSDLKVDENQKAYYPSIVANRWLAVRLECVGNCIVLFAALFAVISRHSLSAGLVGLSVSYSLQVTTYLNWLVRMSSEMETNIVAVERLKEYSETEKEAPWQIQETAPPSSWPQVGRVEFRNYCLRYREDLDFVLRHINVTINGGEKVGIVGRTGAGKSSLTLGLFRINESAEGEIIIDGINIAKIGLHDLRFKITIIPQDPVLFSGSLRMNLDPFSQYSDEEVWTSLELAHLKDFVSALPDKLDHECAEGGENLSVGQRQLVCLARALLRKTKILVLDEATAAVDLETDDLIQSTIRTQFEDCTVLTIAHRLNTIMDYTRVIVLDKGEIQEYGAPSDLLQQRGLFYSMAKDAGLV

Row | Structure (SMILES) | IC50 at 5 days (in vitro) | % of reversion of sensitivity of MCF7-MX100 towards topotecan (BCRP [1]) | EC50 (BCRP [2]) | Selectivity for ABC transporters (P-gp, MRP1, BCRP) [3] | Topotecan resistance of MCF7-MX100 Therapeutic index (BCRP [1]) | % of reversion of sensitivity of 2008/MRP1 towards DOX (MRP1) | DOX resistance of 2008/MRP1 Therapeutic index (MRP1)
1 | O=c1cc(-c2ccc(OCCOCCn3cc(CCCOc4ccc(-c5cc(=O)c6ccc(F)cc6o5)cc4)nn3)cc2)oc2ccccc12 [Ac3Az1, 7-Fluoro-2-(4-(3-(1-(2-(2-(4-(4-oxo-4H-chromen-2-yl)phenoxy)ethoxy)ethyl)-1H-1,2,3-triazol-4-yl)propoxy)phenyl)-4H-chromen-4-one] | > 100 µM | about 53.3% |  |  |  |  | 
2 | Cc1ccc2oc(-c3ccc(OCCCCc4cn(CCOCCOCCOc5ccc(-c6cc(=O)c7cc(F)ccc7o6)cc5)nn4)cc3)cc(=O)c2c1 [Ac5Az4, 6-Fluoro-2-(4-(2-(2-(2-(4-(4-(4-(6-methyl-4-oxo-4H-chromen-2-yl)phenoxy)butyl)-1H-1,2,3-triazol-1-yl)ethoxy)ethoxy)ethoxy)phenyl)-4H-chromen-4-one] | > 100 µM |  | 18 nM |  |  |  | 
3 | Cc1ccc2oc(-c3ccc(OCCCCc4cn(CCOCCOCCOc5ccc(-c6oc7ccccc7c(=O)c6OCc6ccccc6)cc5)nn4)cc3)cc(=O)c2c1 [Ac5Az5, 3-(Benzyloxy)-2-(4-(2-(2-(2-(4-(4-(4-(6-methyl-4-oxo-4H-chromen-2-yl)phenoxy)butyl)-1H-1,2,3-triazol-1-yl)ethoxy)ethoxy)ethoxy)phenyl)-4H-chromen-4-one] | > 100 µM |  | 33 nM | Pgp- and BCRP-dual selectivity |  |  | 
4 | COC(=O)c1cccc(COc2c(-c3ccc(OCCOCCn4cc(CCCCOc5ccc(-c6cc(=O)c7cc(C)ccc7o6)cc5)nn4)cc3)oc3ccccc3c2=O)c1 [Ac5Az8, Methyl 3-(((2-(4-(2-(2-(4-(4-(4-(6-methyl-4-oxo-4H-chromen-2-yl)phenoxy)butyl)-1H-1,2,3-triazol-1-yl)ethoxy)ethoxy)phenyl)-4-oxo-4H-chromen-3-yl)oxy)methyl)benzoate] | > 100 µM | about 64.0% | ≤ 10 nM | Pgp- and BCRP-dual selectivity | >25000.0 |  | 
5 | Cc1ccc2oc(-c3ccc(OCCCCc4cn(CCOCCOc5ccc(-c6oc7ccccc7c(=O)c6OCc6ccccc6)cc5)nn4)cc3)cc(=O)c2c1 [Ac5Az10, 3-(Benzyloxy)-2-(4-(2-(2-(4-(4-(4-(6-methyl-4-oxo-4H-chromen-2-yl)phenoxy)butyl)-1H-1,2,3-triazol-1-yl)ethoxy)ethoxy)phenyl)-4H-chromen-4-one] | > 100 µM | about 80.0% |  | mono-BCRP selectivity | >13333.3 |  | 
6 | O=C(/C=C/c1ccc(OCCCCc2cn(CCOCCOc3ccc(-c4cc(=O)c5ccccc5o4)cc3)nn2)cc1)c1ccc(F)cc1O [Ac10Az1, (E)-2-(4-(2-(2-(4-(4-(4-(3-(4-Fluoro-2-hydroxyphenyl)-3-oxoprop-1-en-1-yl)phenoxy)butyl)-1H-1,2,3-triazol-1-yl)ethoxy)ethoxy)phenyl)-4H-chromen-4-one] |  |  |  | MRP1- and BCRP-dual selectivity |  | ~54.8% | 
7 | O=c1[nH]c(-c2ccc(OCCCc3cn(CCOCCOc4ccc(-c5cc(=O)c6ccccc6o5)cc4)nn3)cc2)nc2ccccc12 [Ac11Az1, 2-(4-(3-(1-(2-(2-(4-(4-Oxo-4H-chromen-2-yl)phenoxy)ethoxy)ethyl)-1H-1,2,3-triazol-4-yl)propoxy)phenyl)quinazolin-4(3H)-one] | > 100 µM |  |  | mono-BCRP selectivity | >3225.8 |  | 
8 | O=c1cc(-c2ccc(OCCOCCn3cc(CN(Cc4ccccc4)Cc4cn(CCOCCOc5ccc(-c6cc(=O)c7ccccc7o6)cc5)nn4)nn3)cc2)oc2ccccc12 [Ac15Az1, 2,2′-((((((4,4′-((Benzylazanediyl)bis(methylene))bis(1H-1,2,3-triazole-4,1-diyl))bis(ethane-2,1-diyl))bis(oxy))bis(ethane-2,1-diyl))bis(oxy))bis(4,1-phenylene))bis(4H-chromen-4-one)] | > 100 µM |  | 111 ± 9 nM | MRP1- and BCRP-dual selectivity |  |  | 
9 | O=c1c(OCc2ccccc2)c(-c2ccc(OCCOCCOCCn3cc(CN(Cc4ccccc4)Cc4cn(CCOCCOCCOc5ccc(-c6oc7ccccc7c(=O)c6OCc6ccccc6)cc5)nn4)nn3)cc2)oc2ccccc12 [Ac15Az5, 2,2′-((((((((4,4′-((Benzylazanediyl)bis(methylene))bis(1H-1,2,3-triazole-4,1-diyl))bis(ethane-2,1-diyl))bis(oxy))bis(ethane-2,1-diyl))bis(oxy))bis(ethane-2,1-diyl))bis(oxy))bis(4,1-phenylene))bis(3-(benzyloxy)-4H-chromen-4-one)] | > 100 µM |  | 48 nM | mono-BCRP selectivity |  |  | 
10 | O=c1cc(-c2ccc(OCCOCCn3cc(CN(CCOc4ccc5c(=O)cc(-c6ccccc6)oc5c4)Cc4ccccc4)nn3)cc2)oc2ccccc12 [Ac16Az1, 7-(2-(Benzyl((1-(2-(2-(4-(4-oxo-4H-chromen-2-yl)phenoxy)ethoxy)ethyl)-1H-1,2,3-triazol-4-yl)methyl)amino)ethoxy)-2-phenyl-4H-chromen-4-one] | > 100 µM | 80.0% |  |  |  |  | 
11 | Cc1ccc2oc(-c3ccc(OCCOCCOCCn4cc(CN(CCOc5ccc6c(=O)cc(-c7ccccc7)oc6c5)Cc5ccccc5)nn4)cc3)cc(=O)c2c1 [Ac16Az3, 7-(2-(Benzyl((1-(2-(2-(2-(4-(6-methyl-4-oxo-4H-chromen-2-yl)phenoxy)ethoxy)ethoxy)ethyl)-1H-1,2,3-triazol-4-yl)methyl)amino)ethoxy)-2-phenyl-4H-chromen-4-one] | > 100 µM |  |  | mono-MRP1 selectivity |  |  | >726.2
12 | O=c1cc(-c2ccccc2)oc2cc(OCCN(Cc3ccccc3)Cc3cn(CCOCCOCCOc4ccc(-c5oc6ccccc6c(=O)c5OCc5ccccc5)cc4)nn3)ccc12 [Ac16Az5, 7-(2-(Benzyl((1-(2-(2-(2-(4-(3-(benzyloxy)-4-oxo-4H-chromen-2-yl)phenoxy)ethoxy)ethoxy)ethyl)-1H-1,2,3-triazol-4-yl)methyl)amino)ethoxy)-2-phenyl-4H-chromen-4-one] | > 100 µM |  |  | mono-MRP1 selectivity |  | about 77.8% | >331.5
13 | O=c1cc(-c2ccccc2)oc2cc(OCCOCCOCCn3cc(CN(CCOc4ccc5c(=O)cc(-c6ccccc6)oc5c4)Cc4ccccc4)nn3)ccc12 [Ac16Az12, 7-(2-(Benzyl((1-(2-(2-(2-((4-oxo-2-phenyl-4H-chromen-7-yl)oxy)ethoxy)ethoxy)ethyl)-1H-1,2,3-triazol-4-yl)methyl)amino)ethoxy)-2-phenyl-4H-chromen-4-one] | > 100 µM |  |  | mono-MRP1 selectivity |  |  | >480.8
14 | COC(=O)c1cccc(COc2c(-c3ccc(OCCOCCN=[N+]=[N-])cc3)oc3ccccc3c2=O)c1 [Az8, Methyl 3-(((2-(4-(2-(2-azidoethoxy)ethoxy)phenyl)-4-oxo-4H-chromen-3-yl)oxy)methyl)benzoate] | 67.5 µM |  |  | mono-BCRP selectivity | 562.5 |  | 
15 | [N-]=[N+]=NCCOCCOc1ccc(-c2oc3ccccc3c(=O)c2OCc2ccccc2)cc1 [Az10, 2-(4-(2-(2-Azidoethoxy)ethoxy)phenyl)-3-(benzyloxy)-4H-chromen-4-one] | 51 µM |  | 32 nM | mono-BCRP selectivity |  |  | 
